Source: US10342869B2, “Compositions comprising anti-CD38 antibodies and lenalidomide” (SANOFI, priority 2012, dated 2019)

Legend:
[1] = tested on: NCI-H929 multiple myeloma model; experiment: NCI-H929 subcutaneous multiple myeloma xenograft mouse model; assay type: in vivo, mice; details: lenalidomide 1 mg/kg/day PO QD × 21 d; for Activity: hu38SB19 0.5 mg/kg/injection IV 2x/wk × 2 wk
Source text: (§1) The subcutaneous multiple myeloma (MM) xenograft mouse models were established using H929 and RPMI8226 cell lines. Specifically, 5-6 week old female Balb/c Scid mice were obtained from Jackson Lab. Mice were housed for 7-10 days prior to implantation. Mice were housed in a dedicated room in the UCSF Mt Zion Animal Barrier Facility. NCI-H929 and RPMI-8226 cells were obtained from the German Collection of Microorganisms and Cell Cultures, DSMZ, (Deutsche Sammlung von Mikroorganismen and Zellkulturen), and grown in sterile suspension culture in T225 flasks as follows: NCI-H929:RPMI1640+20% FBS+4 mM L-glutamine+1 mM sodium pyruvate+50 μM mercaptoethanol. RPMI-8226:RPMI1640+10% FBS+4 mM L-glutamine.
(§2) At the time of implantation, mice were shaved on the right flank and shoulder region and anesthetized with ip avertin. MM cells suspended in serum free RPMI 1640 media diluted 1:1 with Matrigel (BD) at a concentration of 1×10^8 cells per ml were injected sc into the right flank in 100 μL volume (1×10^7 cells) using a 1 ml syringe and 25 g needle. Mice were monitored twice weekly for the appearance of tumors and once tumors were visible, measurements were collected twice weekly for body weight and tumor volume. Electronic balance and calipers were used and data was collected directly into a study management program (Study Director). When the mean tumor volume reached about 150-200 mm^3, the mice were distributed into treatment groups of 8-10 mice per groups and dosing was begun.
(§3) Data were collected using electronic balance and calipers using a study management application called StudyLog (Study Director).
(§4) Antitumor activity was determined according to NCI standards based on the ratio of the median tumor volume change of the treated/median tumor volume change of the control×100 (% ΔT/ΔC). Low numerical values for ΔT/ΔC describe stronger anti-tumor activity. Anti-tumor activity is defined as ΔT/ΔC≤40% at minimum. ΔT/ΔC<10% is considered high anti-tumor activity.

[2] = tested on: RPMI-8226 tumors; experiment: RPMI-8226 hind-flank xenograft model (Example 3, FIGS. 13-14); assay type: in vivo, mice; details: RPMI-8226 xenograft; hu38SB19 twice weekly × 2 wk IV; lenalidomide qdx7×3 wk PO
Experimental: Lenolidomide (TC27682) was obtained from AK Scientific Inc. (Mountain View, Calif.) and prepared as a suspension in 1% (w/v) carboxymethyl cellulose (Sigma). Preparation was made using a mortar and pestle to generate a slurry suspension in the vehicle, diluted to the appropriate concentration, and used for dosing by oral gavage. Lenalidomide was administered qdx7×3 wk PO.
Zion Animal Barrier Facility.
RPMI-8226 were cultured in RPMI1640+10% FBS+4 mM L-glutamine.

[3] = tested on: RPMI-8226 multiple myeloma model; experiment: RPMI-8226 subcutaneous multiple myeloma xenograft mouse model; details: RPMI-8226 xenograft, hu38SB19 15 mg/kg/injection IV 2x/wk × 2 wk, lenalidomide 15 mg/kg/day PO QD × 21 d
Source text: as §1, §2, §3, §4

[4] = tested on: tumor cells; experiment: ADCC on tumor cells; assay type: cell-based
[5] = tested on: tumor cells; experiment: Apoptosis induction on tumor cells (preclinical studies); assay type: cell-based; details: without cross-linking
[6] = tested on: tumor cells; details: reported for other CD38 antibodies; cited from earlier work

Row | Compound | % ΔT/ΔC (D69) ([1]; D69, hu38SB19 0.5 mg/kg/injection IV 2x/wk × 2 wk) [%] | Activity [1] | Activity ([1]; listed as lenalidomide) | Tumor growth inhibition [2] | % ΔT/ΔC (D69) ([3]; D69) [%] | Activity [3] | Activity ([3]; listed as lenalidomide) | ADCC activity on tumor cells [4] | Pro-apoptotic activity on tumor cells [5] | Apoptosis induction [6]
1 | Nc1cccc2c1CN(C1CCC(=O)NC1=O)C2=O (racemic) [Lenalidomide, (RS)-3-(4-amino-1-oxo-3H-isoindol-2-yl)piperidine-2,6-dione] | 20 | Active | active | not robustly sensitive to single-agent therapy | 61 | Inactive | inactive | – | – | –
2 | hu38SB19: humanized anti-CD38 antibody; VH SEQ ID NO: 66, VL SEQ ID NO: 62 or 64 | – | Active | – | dose-dependent inhibition of tumor growth | – | Inactive | – | potent ADCC | potent direct pro-apoptotic activity | –
3 | Daratumumab: CD38 antibody reported to induce apoptosis only after cross-linking | – | – | – | – | – | – | – | – | – | able to induce apoptosis only after cross-linking with a secondary antibody
